From patent US20180344854A1, “SUPERSATURATED COMPOSITIONS OF BENZIMIDAZOLE COMPOUNDS” (Faes Farma, S.A., priority 2015, published 2018)
Values after ≈ are worked out from the molar mass of the structure shown.

Key:
Format in all cases: physicochemical
[1] = Aqueous solubility of bilastine in the pH range 5-8; conditions: water, aqueous buffer
Procedure: The above benzimidazole compounds with selective H1 antihistaminic activity present low solubility in water, which impedes the development of pharmaceutically acceptable means of administering said compounds in liquid form. For example, the solubility of bilastine in the pH range 5-8 is around 500 μg/mL.

[2] = Solubility of bilastine after heating the slurry with acid at 95° C. and cooling (Method 2), HPLC-PDA; conditions: for solubility after 24 h: pH 4.3, after 24 h; for solubility at 2 h: aqueous buffer, thermodynamic from solid, pH 4.3, 95° C. 2 h, filtrate stood overnight at room temperature
Procedure: Alternative Method for Determining the Solubility
HPLC-PDA analysis was carried out using a Acquity BEH C18 1.7 μm 100×2.1 mm column at a temperature of 40° C. The isocratic mobile phase was composed of acetonitrile/methanol/ammonium bicarbonate 10 mM pH 8.7 (20.2/24.8/55.0%) (% v/v), at a flow rate of 0.6 mL/min. Samples were centrifuged 10 minutes at 4000 rpm at 20° C., and supernatant diluted to approx. 20-40 μg/mL in water. These diluted samples were kept at 18° C. until analysis. Quantization was performed at 220 nm by area comparison against a calibration curve obtained with bilastine working standard.
Method 2. A slurry of bilastine (100 mg) and the organic carboxylic acid (amount needed to obtain a pH of 4.0-4.5) in water (10 ml) was prepared. The mixture was stirred at 95° C. for 2 h and filtered. The filtrate was cooled to room temperature and allowed to stand overnight.
Citric acid was added to a slurry of 100 mg of bilastine in 10 mL of water to get a pH of 4.3 and the mixture was heated at 95° C. for 2 h. Then the solid was filtered off and the filtrate was allowed to stand overnight at room temperature. The solid was separated by centrifugation and the concentration of bilastine was determined by HPLC-PDA.
D,L-Tartaric acid was added to a slurry of 100 mg of bilastine in 10 mL of water to get a pH of 4.3 and the mixture was heated at 95° C. for 2 h. Then the solid was filtered off and the filtrate was allowed to stand overnight at room temperature. The solid was separated by centrifugation and the concentration of bilastine was determined by HPLC-PDA.
Hydrochloric acid 3.7% v/v was added to a slurry of 100 mg of bilastine in 10 mL of water to get a pH of 4.3 and the mixture was heated at 95° C. for 2 h. Then the solid was filtered off and the filtrate was allowed to stand overnight at room temperature. The solid was separated by centrifugation and the concentration of bilastine was determined by HPLC-PDA.

[3] = Solubility of cocrystals in water at room temperature, HPLC area; conditions: for Solubility (HPLC area of bilastine), run _1 / Solubility (HPLC area of bilastine), run _2 / solubility on dissolution of cocrystal in water: water; for Solubility (HPLC area of bilastine), run _1 / Solubility (HPLC area of bilastine), run _2: rt; for pH_1 / pH_2: pH of the solution; for solubility on dissolution of cocrystal in water: room temperature, 400 mg in 24 ml
Procedure: 25 μL sample were injected.
Solubility of cocrystals was determined by stirring the product in water at room temperature (400 mg of product in 24 ml of water, 60 vol.). The product was previously milled in order to reduce the crystal size effect. A sample is collected and filtered using a sintered funnel (n° 3) periodically (30, 60, 180 min and after overnight). The filtered solid was immediately analyzed by XRPD, while the mother liquors are filtered through a 0.22 um filter. […] The concentration of Bilastine is determined by HPLC area (in some experiments where a high solubility was detected the mother liquor was diluted by a factor 10). This concentration is compared with the bilastine concentration obtained in the same conditions in order to determine a relative solubility.

| Compound | Solubility (HPLC area of bilastine), run _1 ([3]; 0 min) [area counts] | Solubility (HPLC area of bilastine), run _2 ([3]; 0 min) [area counts] | Solubility (HPLC area of bilastine), run _1 ([3]; 30 min) [area counts] | Solubility (HPLC area of bilastine), run _2 ([3]; 30 min) [area counts] | Solubility (HPLC area of bilastine), run _1 ([3]; 60 min) [area counts] | Solubility (HPLC area of bilastine), run _2 ([3]; 60 min) [area counts] | Solubility (HPLC area of bilastine), run _1 ([3]; 180 min) [area counts] | Solubility (HPLC area of bilastine), run _2 ([3]; 180 min) [area counts] | Solubility (HPLC area of bilastine), run _1 ([3]; 1080 min) [area counts] | Solubility (HPLC area of bilastine), run _2 ([3]; 1080 min) [area counts] | pH_1 ([3]; run 1, 30 min) | pH_1 ([3]; run 1, 60 min) | pH_1 ([3]; run 1, 180 min) | pH_1 ([3]; run 1, 1080 min) | pH_2 ([3]; run 2, 30 min) | pH_2 ([3]; run 2, 60 min) | pH_2 ([3]; run 2, 180 min) | pH_2 ([3]; run 2, 1080 min) | solubility on dissolution of cocrystal in water [3] | other results |
| --- | --- | --- | --- | --- | --- | --- | --- | --- | --- | --- | --- | --- | --- | --- | --- | --- | --- | --- | --- | --- |
| CCOCCn1c(C2CCN(CCc3ccc(C(C)(C)C(=O)O)cc3)CC2)nc2ccccc21 [bilastine, 2-[4-(2-{4-[1-(2-Ethoxyethyl)-1H-benzimidazol-2-yl]-1-piperidinyl}ethyl)phenyl]-2-methylpropanoic acid] | – | – | – | – | – | – | – | – | – | – | – | – | – | – | – | – | – | – | – | solubility [1]: ~500 µg/mL (≈ 1.08 mM); solubility after 24 h ([2]; citric acid): maintained; concentration of bilastine ([2]; hydrochloric acid (comparative), pH 4.3, compared with the pH-dependent solubility of FIG. 1): in accordance with its pH-dependent solubility; solubility after 24 h ([2]; tartaric acid): maintained; solubility at 2 h ([2]; water acidified with D,L-tartaric acid, D,L-tartaric acid): 2700 µg/mL (≈ 5.82 mM); solubility at 2 h ([2]; water acidified with citric acid, citric acid): 2700 µg/mL (≈ 5.82 mM) |
| CCOCCn1c(C2CCN(CCc3ccc(C(C)(C)C(=O)O)cc3)CC2)nc2ccccc21.CCOCCn1c(C2CCN(CCc3ccc(C(C)(C)C(=O)O)cc3)CC2)nc2ccccc21.O=C(O)CCCC(=O)O [GL(IV)] | 0 | 0 | 61110 | 61019 | 61558 | 61328 | 60841 | 62159 | 48734 | 55535 | 4.25 | 4.22 | 4.06 | 4.00 | 4.25 | 4.22 | 4.11 | 3.98 | around 60000 area counts | – |
| CCOCCn1c(C2CCN(CCc3ccc(C(C)(C)C(=O)O)cc3)CC2)nc2ccccc21.CCOCCn1c(C2CCN(CCc3ccc(C(C)(C)C(=O)O)cc3)CC2)nc2ccccc21.O=C(O)CCCC(=O)O [GL(I)] | 0 | 0 | 49106 | 48462 | 48363 | 48871 | 50828 | 50771 | 48315 | 47972 | 4.42 | 4.31 | 4.08 | 4.11 | 4.34 | 4.3 | 4.29 | 3.97 | 48000 area counts | – |
| CCOCCn1c(C2CCN(CCc3ccc(C(C)(C)C(=O)O)cc3)CC2)nc2ccccc21.O=C(O)CCCC(=O)O [GL(V)] | 0 | 0 | 61517 | 62303 | 60930 | 60916 | 60628 | 61316 | 59755 | 60769 | 4.00 | 3.99 | 3.93 | 3.95 | 3.97 | 3.95 | 3.94 | 3.97 | 60000 area counts | – |
